Measurements from patent US20080090788A1, “Chemical Compounds” (priority 2005, published 2008).

What was measured:
IkB-α = IkB-α phosphorylation and degradation by immunoblotting in LPS-stimulated U937 cells; type: cell-based, human; details: 30 minutes after LPS; for effect on IkB-α phosphorylation and degradation: 1 hour pretreatment
Description: Western blotting was performed as previously described (Brimmell M, Burns J S, Munson P, et al. High level expression of differentially localized BAG-1 isoforms in some oestrogen receptor-positive human breast cancers. Br J Cancer 1999; 81: 1042-51). IkB-α and phospho-Ser32 specific IkB-α antibodies were from Cell Signaling Technology (Hitchin, UK). The PARP antibody (C2-10 clone) was from R&D Systems (Abingdon, UK).
To determine the kinetics of modulation of IkB-α by LPS, U937 cells were treated with LPS for up to 120 minutes and total IkB-α and phosphorylated IkB-αanalysed by immunoblotting. There was a rapid accumulation of phosphorylated IkB-α, accompanied by IkB-α degradation (FIG. 3a). To confirm that the enhanced NF-kB inhibitory activity of compounds 3a, 3e and 3f was due to increased inhibition of IKK, we pretreated cells with these compounds and then stimulated them with LPS. IkB-α was analysed at 30 minutes after the addition of LPS because it was possible to monitor both phosphorylation and degradation at this time. […] Therefore, the improved NF-kB inhibitory activity of compounds 3a, 3e and 3f is associated with effective inhibition of IkB-α phosphorylation.
(A) U937-kBluc cells were treated with LPS for the indicated times and expression of total IkB-α and phosphorylated IkB-α determined by immunoblotting. (B) U937-kBluc cells were pretreated with the indicated concentrations of compounds or left untreated. After 1 hour, cells were stimulated with LPS. Control cells were cultured in the absence of LPS. Cells were harvested after 30 minutes and the expression of total IkB-α and phosphorylated IkB-α determined by immunoblotting. The signals were quantified by digital image analysis and the fold increase in IkB-α phosphorylation and percent expression of total IkB-α relative to control cells is shown.

CLL cells = assay: CLL apoptosis by PARP cleavage; type: cell-based, human; details: 6 hours; for PARP cleavage in CLL cells compared with SFZ: 0.5 mM, three patient samples
Description: CLL apoptosis was quantified by analysing PARP which is cleaved by effector caspases during apoptosis. CLL cells isolated from three individual patients were recovered from storage in liquid nitrogen and cultured at a density of 1.25×10^6 cells in 1 ml of growth medium (RPMI 1640, 10% (v/v) FCS and antibiotics). After 1 hour, […] were treated with compounds. Cells were harvested 6 hours after addition of compound, resuspended in 1×SDS-PAGE sample buffer and sonicated prior to immunoblot analysis for PARP expression as described below. PARP cleavage was quantified by determining the amount of cleaved PARP as a percentage of total PARP expression by digital image analysis.
The ability of SFZ and the analogues to induce CLL apoptosis was analysed. CLL cells from 3 individual patients were treated with SFZ for 6 hours and apoptosis was quantified by analysing PARP cleavage. […] The amount of apoptosis induced by SFZ and compounds 3a and 3f (at 0.5 mM) was compared.
(A) CLL cells from three different patients were cultured in the presence of SFZ or compounds 3a and 3f (all at 0.5 mM), or DMSO as a solvent control. After 6 hours, the degree of PARP cleavage was determined as a measure of apoptosis. […] Note that compound 3f was not tested in cells from patient 3. (B) HSC were cultured in the presence of SFZ (1 mM), compounds 3a (0.150 mM), 3e (0.127 mM), 3f (0.089 mM), or DMSO as a solvent control. Analogues were used at the concentration that gave 50% inhibition of NF-kB transcriptional activity in U937 cells. After 20 hours, the proportion of apoptotic cells were visualised by acridine orange staining. Apoptotic cells were counted in five fields in duplicate for each concentration, in two independent experiments and results expressed as mean ±SEM,

[1] = tested on: AP-1 transcription factor binding sites; assay: AP-1 reporter construct luciferase activity in transfected activated HSC; type: cell-based; details: SFZ 1 mM, 3a 0.150 mM, 3e 0.127 mM, 3f 0.089 mM, 24 hours, rat HSC
Description: (§1) For HSC transfections, activated HSC were transfected by the non-liposomal Effectene protocol (Qiagen, UK) using 1 μg reporter plasmid DNA and 10 ng of control Renilla plasmid pRLTK (Promega, Southampton, UK) according to the manufacturer's instructions. After 24 hours, HSC were treated with test compounds for a further 24 hours. Luciferase assays were performed using a dual luciferase kit (Promega) according to the manufacturer's instructions. Firefly luciferase activities were normalised for differences in transfection efficiency by measurement of the activity of the co-transfected pRLTK. The pIκBα wt-Luc plasmid contains nucleotides −332 to +35 of the human IkB-α promoter cloned upstream of luciferase gene (Oakley F, et al, J Biol Chem 2003; 278: 24359-70). The pTIMP1-Luc plasmid contains the 162 bp human TIMP1 minimal promoter cloned upstream of luciferase gene (Bertrand-Philippe M, et al. J Biol Chem 2004; 279: 24530-9). The pAP1-Luc plasmid (Stratagene, UK) contains 7 copies of a consensus AP-1 binding site upstream of the minimal promoter and the luciferase gene.
(§2) To extend these findings, further analyses were performed using the […] promoter which contains multiple NF-kB binding sites and is a well studied NF-kB target. […] Consistent with the presence of activated NF-kB in HSC, (Wright M C et al, Gastroenterology 2001; 121: 685-98.) the IkB-α promoter was activated in HSC (FIG. 2a). SFZ (1 mM) inhibited promoter activity by >60%. […] Therefore, the improved inhibitory activity of analogues 3a, 3e and 3f is specific for NF-kB mediated transcription and is not restricted to U937 cells or artificial promoter constructs.
(§3) Rat HSC were transfected with (A) IkB-α-Luc, (B) TIMP1-Luc or (C) pAP-1-Luc reporter constructs. After 24 hours, cells were treated with sulfasalazine (1 mM), 3a (0.150 mM), 3e (0.127 mM), 3f (0.089 mM), or treated with DMSO as a control. Luciferase activity was determined after another 24 hours. Data presented are mean luciferase activity (±SEM) relative to control cells (value set to 100), derived from two separate experiments, each performed in duplicate and using an independent preparation of HSC.

TIMP1 promoter = TIMP1 promoter luciferase activity in transfected activated HSC; type: cell-based; details: SFZ 1 mM, 3a 0.150 mM, 3e 0.127 mM, 3f 0.089 mM, 24 hours, rat HSC
Description: as §1, §2, §3

With `COc1ccc(CNS(=O)(=O)c2ccc(/N=N/c3ccc(O)c(C(=O)O)c3)cc2)cc1` [Compound 3a, 2-hydroxy-5-[4-(4-methoxy-benzylsulfamoyl)-phenylazo]-benzoic acid] the “effect on IkB-α phosphorylation and degradation” value (IkB-α; 200 μM) was “partially effective”, the “effect on IkB-α phosphorylation and degradation” value (IkB-α; 500 μM) was “prevented IkB-α phosphorylation and degradation” and the “PARP cleavage in CLL cells compared with SFZ” value (CLL cells) was “induced more PARP cleavage than SFZ”. For the same compound, the “effect on activity of AP-1 reporter construct” value (“effect on activity” below) [1] was “neither SFZ or the analogues interfered” and the “effect on TIMP1 promoter activity” value (TIMP1 promoter) was “neither SFZ or the analogues interfered with TIMP1 promoter activity”.
In the case of `Cc1cc(/N=N/c2ccc(S(=O)(=O)NCc3ccc(C(F)(F)F)cc3)cc2)cc(C(=O)O)c1O` [Compound 3e, 2-hydroxy-3-methyl-5-[4-(4-trifluoromethyl-benzylsulfamoyl)-phenylazo]-benzoic acid], the “effect on IkB-α phosphorylation and degradation” value (IkB-α; 200 μM) is reported as “partially effective”, the “effect on IkB-α phosphorylation and degradation” value (IkB-α; 500 μM) is reported as “prevented IkB-α phosphorylation and degradation” and the “effect on activity” value [1] is reported as “neither SFZ or the analogues interfered”. For the same compound, the “effect on TIMP1 promoter activity” value (TIMP1 promoter) was “neither SFZ or the analogues interfered with TIMP1 promoter activity”.
For `O=C(O)c1cc(/N=N/c2ccc(S(=O)(=O)NCc3ccc(C(F)(F)F)cc3)cc2)ccc1O` [Compound 3f, 2-hydroxy-5-[4-(4-trifluoromethyl-benzylsulfamoyl)-phenylazo]-benzoic acid], the “effect on IkB-α phosphorylation and degradation” value (IkB-α; 200 μM) was “partially effective”, the “effect on IkB-α phosphorylation and degradation” value (IkB-α; 500 μM) was “prevented IkB-α phosphorylation and degradation” and the “PARP cleavage in CLL cells compared with SFZ” value (CLL cells) was “induced more PARP cleavage than SFZ”. For the same compound, the “effect on activity” value [1] was “neither SFZ or the analogues interfered” and the “effect on TIMP1 promoter activity” value (TIMP1 promoter) was “neither SFZ or the analogues interfered with TIMP1 promoter activity”.
For `O=C(O)c1cc(/N=N/c2ccc(S(=O)(=O)Nc3ccccn3)cc2)ccc1O` [SFZ, Sulfasalazine, reference compound], the “effect on regulation of IkB-α” value (IkB-α; 1 mM) was “only very modest effects”, the “induction of apoptosis (PARP cleavage) in CLL cells” value (CLL cells; cells from 3 patients, dose response) was “induced dose dependent apoptosis” and the “effect on activity” value [1] was “neither SFZ or the analogues interfered”. The “effect on TIMP1 promoter activity” value (TIMP1 promoter) was “neither SFZ or the analogues interfered with TIMP1 promoter activity”.
